What was measured:
[1] = tested on: C. botulinum 53B (proteolytic) vegetative cells; type: cell-based, Clostridium botulinum; conditions: pH 5.5
[2] = tested on: C. botulinum Toxin type B (proteolytic) spores; type: cell-based, Clostridium botulinum; conditions: pH 5.5
[3] = tested on: all strains of C. botulinum tested (vegetative cells); type: cell-based, Clostridium botulinum
[4] = tested on: C. botulinum Toxin type A (proteolytic) spores; type: cell-based, Clostridium botulinum; conditions: pH 5.5
[5] = tested on: C. botulinum Toxin type B (non-proteolytic) spores; type: cell-based, Clostridium botulinum; conditions: pH 5.5
[6] = tested on: C. botulinum Beluga E (Non-proteolytic) vegetative cells; type: cell-based, Clostridium botulinum; conditions: pH 5.5
[7] = tested on: C. botulinum 33A (proteolytic) vegetative cells; type: cell-based, Clostridium botulinum; conditions: pH 5.5
[8] = tested on: C. botulinum Alaska E (non-proteolytic) vegetative cells; type: cell-based, Clostridium botulinum; conditions: pH 5.5
[9] = tested on: Lactococcus lactis subsp. cremoris; type: cell-based
[10] = tested on: C. botulinum Toxin type E spores; type: cell-based, Clostridium botulinum; conditions: pH 5.5
[11] = tested on: all tested C. botulinum strains (spores); type: cell-based, Clostridium botulinum
[12] = tested on: C. botulinum Alaska E vegetative cells; type: cell-based, Clostridium botulinum
[13] = tested on: C. botulinum Beluga E vegetative cells; type: cell-based, Clostridium botulinum
[14] = comparative antimicrobial activity in various foodstuff or media (summary table); set-up: key: + means antimicrobial activity, multiple + indicates increased antimicrobial activity; ++: multiple + indicates increased antimicrobial activity; +++: multiple + indicates increased antimicrobial activity; − means no antimicrobial activity
[15] = tested on: Lactobacillus plantarum; type: cell-based
[16] = tested on: Lactococcus lactis subsp. cremoris; type: cell-based; remark: listed apart in the source
[17] = tested on: C. botulinum E mixed strains vegetative cells; type: cell-based, Clostridium botulinum
[18] = tested on: Lactococcus lactis subsp. cremoris; type: cell-based; remark: listed apart in the source
[19] = standard plate well diffusion assay of RTD beverage; type: cell-based

Substance: ε-poly-L-lysine
- Inhibition zone against indicator C. botulinum strain 53B (proteolytic) [1]: 0 mm
- Inhibition zone against indicator C. botulinum strain Toxin type B (proteolytic) [2]: 0 mm
- inhibition of growth of C. botulinum strains from vegetative cells (in words) [3]: did not show clear or strong inhibition
- Inhibition zone against indicator C. botulinum strain Toxin type A (proteolytic) [4]: 0 mm
- Inhibition zone against indicator C. botulinum strain Toxin type B (non-proteolytic) [5]: 0 mm
- Inhibition zone against indicator C. botulinum strain Beluga E (Non-proteolytic) [6]: 0 mm
- Inhibition zone against indicator C. botulinum strain 33A (proteolytic) [7]: 0 mm
- Inhibition zone against indicator C. botulinum strain Alaska E (non-proteolytic) [8]: 0 mm
- effect on apparent nisin activity (in words) [9]: significantly increased
- Inhibition zone against indicator C. botulinum strain Toxin type E [10]: 0 mm
- inhibition of growth of C. botulinum from spores (in words) [11]: unable to inhibit the growth of C. botulinum from spores
- Inhibition zone against indicator C. botulinum strain Alaska E [12]: 0 mm
- Inhibition zone against indicator C. botulinum strain Beluga E [13]: 0 mm
- antimicrobial activity ([14]; BHI broth): −
- antimicrobial activity ([14]; Beverages): +
- antimicrobial activity ([14]; Brain heart infusion agar (BHI)): −
- antimicrobial activity ([14]; Green beans packed in water): −
- antimicrobial activity ([14]; Hot dogs): −
- antimicrobial activity ([14]; Savory cream): −
- inhibition of growth of L. plantarum (in words) [15]: very limited inhibition on the initial growth of L. plantarum
- Apparent nisin activity [16]: 0 IU/g
- effect on measurable nisin activity in dairy product (in words) [16]: increased the measurable nisin activity
- Inhibition zone against indicator C. botulinum E mixed strains [17]: 0 mm
- Inhibition zone [18]: 0 mm
- effect on apparent nisin activity in RTD beverage (in words) ([19]; very low levels of ε-poly-L-lysine (50 ppm) added to nisin 250 IU/ml): significantly increased
- Inhibition zone ([19]; ε-poly-L-lysine 50 ppm alone, fruit juice-containing RTD beverage): 0 mm
